Results on twelve compounds are retold here after patent publication US20240425517A1, “NOVEL COMPOUND FOR DEGRADATION OF TARGET PROTEIN OR POLYPEPTIDE BY POLYUBIQUITINATION” (PRAZER THERAPEUTICS INC., priority 2021, published 2024).

Structures are written as SMILES. Structures can show the parent of a compound that is named as a salt. Where two headings read alike, the source gives them in different places.

This assay deals with T1, Aurora A proteins (Homo sapiens, UniProt O14965).
T1 construct: endogenous in cells; host or cells: MM.1S
T1 sequence (O14965 1-403): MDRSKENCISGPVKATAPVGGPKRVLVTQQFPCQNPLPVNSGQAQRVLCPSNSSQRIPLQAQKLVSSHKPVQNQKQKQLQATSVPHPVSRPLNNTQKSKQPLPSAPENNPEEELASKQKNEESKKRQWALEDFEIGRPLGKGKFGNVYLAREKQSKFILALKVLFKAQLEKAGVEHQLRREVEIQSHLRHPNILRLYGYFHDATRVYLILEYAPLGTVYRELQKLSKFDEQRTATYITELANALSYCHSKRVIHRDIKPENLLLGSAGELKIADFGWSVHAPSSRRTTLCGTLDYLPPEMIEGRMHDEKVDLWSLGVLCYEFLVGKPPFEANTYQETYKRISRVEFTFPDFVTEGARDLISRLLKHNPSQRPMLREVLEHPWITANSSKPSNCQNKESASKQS
The experiment in a line: Degradation of Aurora A protein in MM.1S cell lines (Western blot densitometry). The class given is cell-based. The settings on record: for Aurora A degradation (%) at 5 µM: MM1.S, read-out: Aurora A degrading capacity (%). As for the experimental part: Specifically, the MM.1S cells were cultured in RPMI-1640 medium containing 10% fetal bovine serum (FBS), 1% penicillin, and streptomycin (100 U/mL), transferred to a 6-well plate, and after 24 hours, the Aurora A degraders were diluted in the RPMI culture medium and cells were treated with 5 μM concentration thereof. After treatment, the cells were incubated in a CO2 incubator for 24 hours. […] After cell culture was completed according to the experimental conditions, the cells were collected and centrifuged at 1,800 rpm for 3 minutes. The cells in the precipitate were lysed with RIPA (25 mM Tris-HCl pH 7.6, 150 mM NaCl, 1% NP-40, 1% sodium deoxycholate, 0.1% SDS, 1× Protease Inhibitor Cocktail), 5× sample buffer was added, and then heated at 100° C. for 15 minutes. The prepared sample was electrophoresed with sodium dodecyl sulfate poly acrylamide gel electrophoresis (SDS-PAGE), and then the proteins in the gel were transferred to a PVDF membrane using Trans-Blot Turbo. The membrane was treated with a 5% bovine serum albumin (BSA) solution and blocked at room temperature for 2 hours, and then Aurora A and R-actin antibodies were diluted in the 5% BSA solution to react with the membrane at 4° C. overnight. After washed with PBST (0.5% Tween20) 5 times, horse radish peroxidase (HRP)-conjugated secondary antibodies were diluted in PBST to react at room temperature for 2 hours, and then washed again with a PBST solution 5 times. After enzyme-substrate reaction was carried out using a HRP substrate, a signal was measured with chemi-doc equipment, and the densitometry of a band corresponding to the Aurora A protein detected in the Preparation Example Compounds was quantitatively analyzed. The case when the degrading capacity of each Aurora A degrader was reduced by less than 40% is indicated as +, the case when the degrading capacity was reduced by 40% to 70% (exclusive of 70) is indicated as ++, the case when the degrading capacity was reduced by 70% or more is indicated as +++ in Tables 20 to 23 below.
Background: A western blot detects proteins with antibodies after separation by electrophoresis.

Where [1] appears, read: MM.1S cells, 5 μM, 24 hours, Western blot.

With `COC(=O)c1ccc(C(=O)NCCCNC(=O)c2ccc(Nc3ncc4c(n3)-c3ccc(Cl)cc3C(c3c(F)cccc3OC)=NC4)cc2OC)cc1C#CCN` [5-18″, methyl 2-(3-aminoprop-1-yn-1-yl)-4-((3-(4-((9-chloro-7-(2-fluoro-6-methoxyphenyl)-5H-benzo[c]pyrimido[4,5-e]azepin-2-yl)amino)-2-methoxybenzamido)propyl)carbamoyl)benzoate hydrochloride], the Aurora A degradation (%) at 5 µM under setting [1] was > 70%.

Consider `COC(=O)c1ccc(NC(=O)C2CCN(C(=O)c3ccc(Nc4ncc5c(n4)-c4ccc(Cl)cc4C(c4c(F)cccc4OC)=NC5)cc3OC)CC2)cc1C#CCN` [5-23″, methyl 2-(3-aminoprop-1-yn-1-yl)-4-(1-(4-((9-chloro-7-(2-fluoro-6-methoxyphenyl)-5H-benzo[c]pyrimido[4,5-e]azepin-2-yl)amino)-2-methoxybenzoyl)piperidine-4-carboxamido)benzoate hydrochloride], for which the Aurora A degradation (%) at 5 µM under setting [1] is < 40%. Regarding `COC(=O)c1ccc(C#CCNC(=O)C2CCN(C(=O)c3ccc(Nc4ncc5c(n4)-c4ccc(Cl)cc4C(c4c(F)cccc4OC)=NC5)cc3OC)CC2)cc1C#CCN` [5-28″, methyl 2-(3-aminoprop-1-yn-1-yl)-4-(3-(1-(4-((9-chloro-7-(2-fluoro-6-methoxyphenyl)-5H-benzo[c]pyrimido[4,5-e]azepin-2-yl)amino)-2-methoxybenzoyl)piperidine-4-carboxamido)prop-1-yn-1-yl)benzoate trifluoroacetic acid], under “24 h”, the Aurora A degradation (%) at 5 µM was > 70%. On the same count and under the same terms, the result for `COC(=O)c1ccc(N2CCN(CC3CCN(C(=O)c4ccc(Nc5ncc6c(n5)-c5ccc(Cl)cc5C(c5c(F)cccc5OC)=NC6)cc4OC)CC3)CC2)cc1C#CCN` [5-29″, methyl 2-(3-aminoprop-1-yn-1-yl)-4-(4-((1-(4-((9-chloro-7-(2-fluoro-6-methoxyphenyl)-5H-benzo[c]pyrimido[4,5-e]azepin-2-yl)amino)-2-methoxybenzoyl)piperidin-4-yl)methyl)piperazin-1-yl)benzoate trifluoroacetic acid] reads > 70%.

With `COC(=O)c1ccc(N2CCN(C(=O)CCNC(=O)c3ccc(Nc4ncc5c(n4)-c4ccc(Cl)cc4C(c4c(F)cccc4OC)=NC5)cc3OC)CC2)cc1C#CCN` [5-32″, methyl 2-(3-aminoprop-1-yn-1-yl)-4-(4-(3-(4-((9-chloro-7-(2-fluoro-6-methoxyphenyl)-5H-benzo[c]pyrimido[4,5-e]azepin-2-yl)amino)-2-methoxybenzamido)propanoyl)piperazin-1-yl)benzoate trifluoroacetic acid], the Aurora A degradation (%) at 5 µM (24 h) fell in the range of 40 to 70%. Still for that read-out and setting: the result for `COC(=O)c1ccc(NC2CCC(NC(=O)c3ccc(Nc4ncc5c(n4)-c4ccc(Cl)cc4C(c4c(F)cccc4OC)=NC5)cc3OC)CC2)cc1C#CCN` (stereo not drawn) [5-35″, methyl 2-(3-aminoprop-1-yn-1-yl)-4-((4-(4-((9-chloro-7-(2-fluoro-6-methoxyphenyl)-5H-benzo[c]pyrimido[4,5-e]azepin-2-yl)amino)-2-methoxybenzamido)cyclohexyl)amino)benzoate trifluoroacetic acid] reads > 70%; that for `COC(=O)c1ccc(N2CC3(CN(C(=O)c4ccc(Nc5ncc6c(n5)-c5ccc(Cl)cc5C(c5c(F)cccc5OC)=NC6)cc4OC)C3)C2)cc1C#CCN` [5-40″, methyl 2-(3-aminoprop-1-yn-1-yl)-4-(6-(4-((9-chloro-7-(2-fluoro-6-methoxyphenyl)-5H-benzo[c]pyrimido[4,5-e]azepin-2-yl)amino)-2-methoxybenzoyl)-2,6-diazaspiro[3.3]heptan-2-yl)benzoate trifluoroacetic acid], > 70%. On the same count and under the same terms, the result for `COc1cc(Nc2ncc3c(n2)-c2ccc(Cl)cc2C(c2c(F)cccc2OC)=NC3)ccc1C(=O)NCCCC(=O)Nc1ccc(-c2cnc(C(F)(F)F)nc2)c(C#CCN)c1` [5-81″, N-(4-((3-(3-aminoprop-1-yn-1-yl)-4-(2-(trifluoromethyl)pyrimidin-5-yl)phenyl)amino)-4-oxobutyl)-4-((9-chloro-7-(2-fluoro-6-methoxyphenyl)-5H-benzo[c]pyrimido[4,5-e]azepin-2-yl)amino)-2-methoxybenzamide trifluoroacetic acid] reads > 70%. On to `COc1cc(Nc2ncc3c(n2)-c2ccc(Cl)cc2C(c2c(F)cccc2OC)=NC3)ccc1C(=O)NCCCCCC(=O)Nc1cccc(C#CCN)c1` [5-104″, N-(6-((3-(3-aminoprop-1-yn-1-yl)phenyl)amino)-6-oxohexyl)-4-((9-chloro-7-(2-fluoro-6-methoxyphenyl)-5H-benzo[c]pyrimido[4,5-e]azepin-2-yl)amino)-2-methoxybenzamide trifluoroacetic acid], for which the Aurora A degradation (%) at 5 µM (24 h) is > 70%. Still for that read-out and setting: the result for `COC(=O)c1ccc(C#CCNC(=O)c2ccc(Nc3ncc4c(n3)-c3ccc(Cl)cc3C(c3c(F)cccc3OC)=NC4)cc2OC)cc1C#CCN` [5-116″, methyl 2-(3-aminoprop-1-yn-1-yl)-4-(3-(4-((9-chloro-7-(2-fluoro-6-methoxyphenyl)-5H-benzo[c]pyrimido[4,5-e]azepin-2-yl)amino)-2-methoxybenzamido)prop-1-yn-1-yl)benzoate trifluoroacetic acid] reads > 70%; that for `COC(=O)c1ccc(N(C)C(=O)CCCNC(=O)c2ccc(Nc3ncc4c(n3)-c3ccc(Cl)cc3C(c3c(F)cccc3OC)=NC4)cc2OC)cc1C#CCN` [5-150″, methyl 2-(3-aminoprop-1-yn-1-yl)-4-(4-(4-((9-chloro-7-(2-fluoro-6-methoxyphenyl)-5H-benzo[c]pyrimido[4,5-e]azepin-2-yl)amino)-2-methoxybenzamido)-N-methylbutanamido)benzoate trifluoroacetic acid], < 40%.

As for `COc1cc(Nc2ncc3c(n2)-c2ccc(Cl)cc2C(c2c(F)cccc2OC)=NC3)ccc1C(=O)O` [Formula 2, reference compound], the “Aurora A degrading capacity” value (MM.1S cells, 5 μM, 24 hours, Western blot, control group) was 0%.
